According to PubChem BioAssay AID1996:
≈ marks a conversion by molar mass, not a printed value.

Settings: buffer; pH 7.4; 200.0 µM

SMILES | solubility kinetic [µg/mL]
CCNC(=S)N1CCN(Cc2ccc3c(c2)OCO3)CC1 | > 46.1
O=c1c2ccccc2ncn1CCOc1ccccc1[N+](=O)[O-] | 3.2 (≈ 10.3 µM)
Cn1cc(Br)c(-c2cccc(N3C(=O)CCCC3=O)c2)n1 | > 52.2
O=C(OCC(=O)c1ccc[nH]1)c1ccc2ccccc2n1 | 30 (≈ 107 µM)
CC(C)CNC(=O)c1cc(-c2ccc3c(c2)OCO3)on1 | 0.5 (≈ 1.73 µM)
COC(=O)c1scc(C)c1NS(=O)(=O)c1ccc(NC(C)=O)cc1 | > 55.3
O=C(O)c1cccc(N=C2NC(=O)C(CO)(CO)S2)c1 | > 44.4
COc1ccc(CC(=O)NCc2csc(-c3cccs3)n2)cc1OC | 54.6 (≈ 146 µM)
NC(=O)c1ccsc1NC(=O)COC(=O)c1cnccn1 | > 45.9
Cc1[nH]c2ccccc2c1C(=O)COC(=O)c1nccnc1N | 6.9 (≈ 22.2 µM)
COCCSc1ccccc1C(=O)Nc1ccc(Br)cc1 | 43.1 (≈ 118 µM)
CCCCN(C(=O)c1c(C)noc1C)c1c(N)n(CCC)c(=O)[nH]c1=O | 18.6 (≈ 51.2 µM)
CCn1c(CCNC(=O)c2ccco2)nc2ccccc21 | 40.5 (≈ 143 µM)
CCCCOC(=O)C1=C(C)NC(=O)NC1c1ccc(N(C)C)cc1 (stereo not drawn) | 1.7 (≈ 5.13 µM)
O=C(c1ccccc1)c1nccn1-c1ccc(Cl)nn1 | > 42.7
CN[C@H](CC(=O)O)C(=O)O | > 22.1
CC(=O)c1c(C)[nH]c(C(=O)Nc2cccc(C)n2)c1C | 21.4 (≈ 78.9 µM)
CCn1c(CCl)nc2cc(S(=O)(=O)N3CCOCC3)ccc21 | 12.9 (≈ 37.5 µM)
CC(NC(=O)COc1cccnc1[N+](=O)[O-])c1ccc(Cl)cc1Cl (stereo not drawn) | 44.1 (≈ 119 µM)
CCc1c(C)nc(SCC(=O)NC2CCCC2)[nH]c1=O | > 44.3
Cc1ccn2cc(-c3ccc(Br)cc3)nc2c1 | 1.2 (≈ 4.18 µM)
COC(=O)C(=C/C=C/c1cccnc1)C(=O)OC | > 37.1
O=C(NC1CCOc2ccccc21)c1ccc(Cl)nc1 (stereo not drawn) | > 43.3

SMILES | solubility kinetic [µg/mL]
CCC(C)NCCOc1cc(C)cc(C)c1C.O=C(O)C(=O)O (stereo not drawn) | 35.1
Cc1ccc[n+](CC(=O)N2CCCc3ccccc32)c1.[Cl-] | > 45.4
Cc1cccc(NC(=O)C(C)n2cc([N+](=O)[O-])cn2)n1 (stereo not drawn) | > 41.3
O=C(COC(=O)c1cccc(Cl)c1)Nc1ccc2[nH]c(=O)[nH]c2c1 | 0.8 (≈ 2.31 µM)
COc1cccc(C(=O)NC2CC(C)(C)NC(C)(C)C2)c1OC | > 48.1
CC(=O)c1ccccc1NCC(=O)Nc1ccc(C)cc1 | 11.2 (≈ 39.7 µM)
Cc1ccc(C)c(SCC(=O)Nc2cccc(S(=O)(=O)N3CCOCC3)c2)c1 | 21.4 (≈ 50.9 µM)
O=C(CSc1nnc(-c2ccccc2)o1)NC1CC1 | > 41.3
NC(=O)c1cc(S(=O)(=O)NCCCc2ccco2)cs1 | > 47.2
OCc1c[nH]c2ccccc12 | 7 (≈ 47.6 µM)
O=C(CSc1nc2ccccc2c(=O)n1CCCO)NC1CC1 | > 50
COc1ccccc1CNC(=O)Cc1ccc(OC)c(OC)c1 | > 47.3
O=C(O)c1cc2c(=O)c3ccccc3oc2nc1C(F)(F)F | > 46.4
Cc1noc(C)c1COC(=O)COc1ccc(C#N)cc1 | > 42.9
COc1ccccc1C(=O)NCc1ccccn1 | > 36.3
C#CCNC(=O)c1cc2sccc2n1C | 30.6 (≈ 140 µM)
O=C(COC(=O)c1cc2ccccc2cc1O)Nc1ccccc1F | 6.3 (≈ 18.6 µM)
Cc1csc2c(N(C)CCO)ncnc12 | > 33.5
O=C(c1ccc(Cl)cc1Cl)N1CCN(c2ccccn2)CC1 | > 50.4
COc1ccc(CCNC(=O)c2csc3c2CCCC3)cc1 | 2.1 (≈ 6.66 µM)
COc1cc(OC)c(C(=O)Nc2ccc(C(=O)c3ccccc3)cc2)cc1OC | 3.4 (≈ 8.69 µM)
Cc1ccc(S(=O)(=O)NCc2ccco2)cc1C(N)=O | > 44.1
CCCc1ccc2oc(C(=O)N(C)Cc3nccs3)c(C)c2c1 | 14 (≈ 42.6 µM)

SMILES | solubility kinetic [µg/mL]
COc1cc(N)c(Cl)cc1C(=O)OCC(=O)NC(=O)NCc1ccco1 | 5.3 (≈ 13.9 µM)
NC(=NCCc1ccc(Cl)cc1)NS(=O)(=O)c1ccccc1 | 47.5 (≈ 141 µM)
O=C(c1cccs1)N1CCN(S(=O)(=O)c2cccs2)CC1 | 47.3 (≈ 138 µM)
COc1cc(CC(=O)OCC(=O)NC(C)c2ccccc2)cc(OC)c1OC (stereo not drawn) | > 58.1
COc1ccc(C23NCCN2C(=O)c2ccccc23)cc1 (stereo not drawn) | > 42
N#Cc1c(NCCO)ccc([N+](=O)[O-])c1NCCO | > 39.9
COCC(C)N=C1SCCN1Cc1ccccc1 (stereo not drawn) | 35.3 (≈ 134 µM)
CCOC(=O)c1cc(-c2c(Cl)cccc2Cl)no1 | 12.1 (≈ 42.3 µM)
Cc1cc(S(=O)(=O)NCCCn2ccnc2)c(C)cc1Cl | > 49.2
O=C(COC(=O)CC1CC2CCC1C2)NCc1ccc(F)cc1 (stereo not drawn) | 46.1 (≈ 144 µM)
Cc1onc(-c2c(Cl)cccc2Cl)c1CO/N=C(\C#N)c1c(Cl)cccc1Cl | < 0.3
NC(=O)c1ccccc1NC(=O)CSC1=NCCS1 | > 44.3
COc1ccc(C(=O)OCc2cc(=O)n3ccsc3n2)cc1F | 4 (≈ 12 µM)
CCOc1ccccc1NC(=O)CCNC(=O)c1ccco1 | 42.6 (≈ 141 µM)
O=C1CCCN1CCCNS(=O)(=O)c1ccc(F)c(F)c1 | > 47.8
O=C(c1ncc[nH]1)c1ccccc1Cl | > 31
C=CCC(C(=O)NC(C)c1ccccc1)C(=O)NC(C)c1ccccc1 (stereo not drawn) | 16.5 (≈ 47.1 µM)
CCOc1ccc(N/C(=N/c2nc(C)cc(C)n2)NC(C)=O)cc1 | 15.1 (≈ 46.1 µM)
N#C/C(=C\c1cccnc1)C(=O)Nc1ccc(S(N)(=O)=O)cc1 | 36.6 (≈ 111 µM)
Cc1cc([N+](=O)[O-])ccc1NC(=O)c1csc(C)c1C | 1.1 (≈ 3.79 µM)
Cc1cccc(OC(C)C(=O)Nc2nccs2)c1 (stereo not drawn) | 37.9 (≈ 144 µM)
CCOC(=O)NC(=S)Nc1ccc(OC)cc1 | 25.6 (≈ 101 µM)
COc1ccc(OCC(=O)Nc2ccccc2Cl)cc1 | 4.5 (≈ 15.4 µM)

SMILES | solubility kinetic [µg/mL]
COC(=O)c1cnc(Oc2c(Cl)cc(N)cc2Cl)cc1C(F)(F)F | 15.3 (≈ 40.1 µM)
O=C(N1CCCC1)N1CCN(S(=O)(=O)c2ccccc2)CC1 | 34.4 (≈ 106 µM)
O=C(CCNC(=O)c1ccco1)Nc1cccc(C(F)(F)F)c1 | > 48.9
COc1cccc(C(=O)NCC2(c3ccccc3)CCCC2)c1OC | 15.3 (≈ 45.1 µM)
CCN(CC)CCN=Cc1c(O)n(Cc2ccccc2)c(=O)[nH]c1=O | > 51.7
Cc1ccccc1OCC(=O)Nc1ccc([N+](=O)[O-])cc1 | 0.4 (≈ 1.4 µM)
Cc1ccc(S(=O)(=O)NCCc2nc3ccccc3[nH]2)cc1 | 36.3 (≈ 115 µM)
Cn1c(/C(C#N)=C(\O)c2ccc([N+](=O)[O-])cc2)nc2ccccc21 | < 0.2
CCNc1nc(SC(C)C(=O)Nc2ccccc2)nc(N(C)C)n1 (stereo not drawn) | 3.4 (≈ 9.81 µM)
O=C(COC(=O)C1(c2ccccc2)CCCC1)N1CCNC1=O | > 47.5
C/C(O)=c1/c(=O)nc2cccc3c2=c1c1ccccc1c3=O | < 0.6
COc1ccc(OC)c(NC(=O)COC(=O)Cc2ccsc2)c1 | 36.2 (≈ 108 µM)
Cc1cc(Cl)ccc1NC(=O)C1CCN(S(C)(=O)=O)CC1 | 10.8 (≈ 32.6 µM)
CCOC(=O)c1cc(C)nc(S(C)(=O)=O)c1C#N | 28.3 (≈ 105 µM)
COC(=O)c1c(C)noc1-c1ccc(Cl)cc1 | 1.6 (≈ 6.36 µM)
COc1ccc(N2CCN(C(=O)Cn3cncn3)CC2)cc1 | > 45.2
Cc1ccc(NC(=O)c2cnccn2)c(C)c1 | 32.7 (≈ 144 µM)
CCOc1ccc(C(=O)NCc2ccco2)cc1OCC | 22.5 (≈ 77.8 µM)
Nc1no[n+]([O-])c1-c1ccccc1 | 24.2 (≈ 137 µM)
Cc1c(C)c(C)c(S(=O)(=O)NCCc2ccccn2)c(C)c1C | 40.3 (≈ 121 µM)
O=C(COC(=O)COc1cccc(F)c1)NCC1CCCCC1 | > 48.5
COc1ccc(CNc2nc3ccccc3n2C(C)C)c(O)c1 | 25.7 (≈ 82.5 µM)
O=C(Nc1cccc(Cl)c1N1CCOCC1)c1cccs1 | 1.6 (≈ 4.96 µM)

SMILES | solubility kinetic [µg/mL]
O=C(NCc1ccccn1)C(=O)Nc1cccc2ccccc12 | 35.4 (≈ 116 µM)
Cc1ccc(C(=O)NCCCn2ccnc2)cc1C | > 38.6
COc1cccc(CN(C)Cc2c(O)ccc3ccccc23)c1 | 29.6 (≈ 96.3 µM)
COc1cc(C(F)(F)F)c(C(=O)N(C)Cc2cccc(Cl)c2)cn1 | 43.6 (≈ 122 µM)
COc1cc(C(=O)Nc2cc(C)ccc2C)ccc1OCc1c(C)noc1C | 7.1 (≈ 18.7 µM)
CCn1c(CNC(=O)C2CCCCC2)cc2ccccc21 | 0.4 (≈ 1.41 µM)
COc1ccc(CCNS(=O)(=O)c2ccc(Cl)cc2)cc1OC | > 53.4
COC(=O)c1cc(C(=O)OC)cc(-n2c(C)cc(C=O)c2C)c1 | 35.8 (≈ 114 µM)
COC(=O)c1ccc(S(=O)(=O)N2CCOCC2)o1 | > 41.3
CCc1noc(C)c1C(=O)NCCc1ccc(Cl)cc1 | > 43.9
Cc1ccc(C(=O)NC2CCCc3ccccc32)cc1[N+](=O)[O-] (stereo not drawn) | 9.3 (≈ 30 µM)
c1ccc2c(c1)CC1(CCCC1)N=C2N1CCOCC1 | 35.5 (≈ 131 µM)
O=C1Nc2ccc(Br)cc2C1=C1CCCCC1 | 7.4 (≈ 25.3 µM)
Cc1ccc(S(=O)(=O)/N=C(/Nc2cccc(O)c2)c2ccccc2)cc1 | > 55
Cc1n(Cc2ccccc2)c2cc([N+](=O)[O-])ccc2[n+]1Cc1ccccc1.[Cl-] | > 59.1
COc1ccc(C(=O)NC2CCSc3ccccc32)cc1 (stereo not drawn) | 6.3 (≈ 21 µM)
CC1CCCC(NCC(=O)Nc2ccc(C(N)=O)cc2)C1C (stereo not drawn) | > 45.5
Cc1cc(C)c(OCC(=O)Nc2nc3ccccc3[nH]2)c(C)c1 | 0.3 (≈ 0.97 µM)
COC(=O)C[N+](C)(C)C/C=C\c1ccccc1.[Br-] | > 47.1
COc1ccc(C(OC(=O)c2ccco2)C(=O)NC(C)(C)C)cc1 (stereo not drawn) | > 49.7
Cc1cc(=O)oc2cc(NC(=O)Cc3ccccc3[N+](=O)[O-])ccc12 | 0.9 (≈ 2.66 µM)
